Tested on: HeLa
Assay: Cytotoxicity against human HeLa cells after 72 hrs by MTT assay
Format: functional, cell-based

How did the IC50 turn out when `CO[C@H]1C[C@H]2CC[C@H](C)[C@H](O)[C@H](O)[C@H]3O[C@]4(CC[C@@H]3OC)CC[C@H](C)[C@@H](C[C@@H](O)C[C@H](O)C[C@@H]3CCC[C@H](CC(=O)O[C@H]5C[C@@]6(O[C@H]5C/C=C/C/C=C\C[C@@H](O)C(=O)O)O[C@](CC[C@@H]6C)(C1)O2)O3)O4` [SPIRASTRELLOLIDE B] was run?
The IC50 was 40 nM.

`COC(=O)[C@H](O)C/C=C\C/C=C/C[C@@H]1O[C@@]23C[C@@H]1OC(=O)C[C@H]1CCC[C@@H](C[C@@H](O)C[C@H](O)C[C@H]4O[C@]5(C=C[C@@H]4C)CC[C@H](OC)[C@H](O5)[C@@H](O)[C@@H](O)[C@@H](C)CC[C@H]4O[C@@](CC[C@@H]2C)(C[C@@H](OC)[C@@H]4Cl)O3)O1` [SPIRASTRELLOLIDE A METHYL ESTER] was tested. Which IC50 did it give?
The IC50 was 30 nM.

`CO[C@H]1CC[C@]23C=C[C@H](C)[C@@H](C[C@@H](O)C[C@H](O)C[C@@H]4CCC[C@H](CC(=O)O[C@H]5C[C@@]6(O[C@H]5C/C=C/C/C=C\C[C@@H](O)C(=O)O)O[C@]5(CC[C@@H]6C)C[C@@H](OC)[C@H](Cl)[C@@H](CC[C@H](C)[C@H](O)[C@H](O)[C@H]1O2)O5)O4)O3` [SPIRASTRELLOLIDE A] was tested. Which IC50 did it give?
Its IC50 is 20 nM.

`COC(=O)[C@H](O)C/C=C\C/C=C/C[C@@H]1O[C@@]23C[C@@H]1OC(=O)C[C@H]1CCC[C@@H](C[C@@H](O)C[C@H](O)C[C@H]4O[C@@]5(CC[C@H](OC)[C@H](O5)[C@@H](O)[C@@H](O)[C@@H](C)CC[C@@H]5C[C@H](OC)C[C@](CC[C@@H]2C)(O5)O3)CC[C@@H]4C)O1` [SPIRASTRELLOLIDE B METHYL ESTER] was tested. Which IC50 did it give?
Its IC50 is 70 nM.

Reference: ChEMBL document CHEMBL2062440, “Isolation of spirastrellolides A and B from a marine sponge Epipolasis sp. and their cytotoxic activities” (J Nat Prod, 2012)
